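Interpolation was linear, between the two tested concentrations surrounding the appropriate level; five concentrations were tested over 48 hours in 96-well plates. GI50 marks 50% less growth.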 Activity calls are given as the source filed them. Cut-off read from the data, not from the text of the source: active = GI50 up to about 1.1 µM and inactive = higher.
Key:
Experiment in all cases: growth of human tumour cells (NCI), 48 h
[1] = test system: 786-0
[2] = test system: A498
[3] = test system: A549
[4] = test system: ACHN
[5] = test system: BT-549
[6] = test system: CAKI-1
[7] = test system: CCRF-CEM
[8] = test system: COLO 205
[9] = test system: DU-145
[10] = test system: EKVX
[11] = test system: HCT-116
[12] = test system: HCT-15
[13] = test system: HL-60
[14] = test system: HOP-62
[15] = test system: HOP-92
[16] = test system: HT-29
[17] = test system: Hs-578T
[18] = test system: IGROV-1
[19] = test system: K562
[20] = test system: KM12
[21] = test system: LOX IMVI
[22] = test system: M14
[23] = test system: MCF7
[24] = test system: MDA-MB-231
[25] = test system: MDA-MB-435
[26] = test system: MDA-N
[27] = test system: MOLT-4
[28] = test system: Malme-3M
[29] = test system: NCI-H226
[30] = test system: NCI-H23
[31] = test system: NCI-H460
[32] = test system: NCI-H522
[33] = test system: NCI/ADR-RES
[34] = test system: OVCAR-3
[35] = test system: OVCAR-4
[36] = test system: OVCAR-5
[37] = test system: OVCAR-8
[38] = test system: PC-3
[39] = test system: RPMI-8226
[40] = test system: RXF 393
[41] = test system: SF-268
[42] = test system: SF-295
[43] = test system: SF-539
[44] = test system: SK-MEL-28
[45] = test system: SK-MEL-2
[46] = test system: SK-MEL-5
[47] = test system: SK-OV-3
[48] = test system: SN12C
[49] = test system: SNB-19
[50] = test system: SNB-75
[51] = test system: SR
[52] = test system: SW-620
[53] = test system: T47D
[54] = test system: TK-10
[55] = test system: U-251
[56] = test system: UACC-257
[57] = test system: UACC-62
[58] = test system: UO-31
[59] = test system: HCC 2998

**Q.** What does the source list for COc1ccc(C=O)cc1OS(=O)(=O)C(F)(F)C(F)(F)C(F)(F)C(F)(F)F?
**A.** GI50 [1]: 31.6 µM (inactive); GI50 [2]: 3.72 µM (inactive); GI50 [3]: 48.4 µM (inactive); GI50 [4]: 44.5 µM (inactive); GI50 [5]: 30.2 µM (inactive); GI50 [6]: 40.3 µM (inactive); GI50 [7]: 14.8 µM (inactive); GI50 [8]: 24.5 µM (inactive); GI50 [9]: > 68.2 µM (inactive); GI50 [10]: 33.3 µM (inactive); GI50 [11]: 27.2 µM (inactive); GI50 [12]: 26.9 µM; GI50 [13]: 8.75 µM (inactive); GI50 [14]: 26.6 µM (inactive); GI50 [15]: 13.2 µM (inactive); GI50 [16]: 29.9 µM (inactive); GI50 [17]: 22.6 µM (inactive); GI50 [18]: 24.9 µM (inactive); GI50 [19]: 3.52 µM (inactive); GI50 [20]: 28.4 µM (inactive); GI50 [21]: 15.2 µM (inactive); GI50 [22]: 28 µM (inactive); GI50 [23]: 26.1 µM (inactive); GI50 [24]: 23.6 µM (inactive); GI50 [25]: 19.9 µM (inactive); GI50 [26]: 19 µM (inactive); GI50 [27]: 3.23 µM (inactive); GI50 [28]: 23.4 µM (inactive); GI50 [29]: > 100 µM (inactive); GI50 [30]: 32.1 µM (inactive); GI50 [31]: 27.2 µM (inactive); GI50 [32]: 24.5 µM (inactive); GI50 [33]: 21 µM (inactive); GI50 [34]: 27 µM (inactive); GI50 [35]: 43.8 µM (inactive); GI50 [36]: 50.7 µM (inactive); GI50 [37]: 28.1 µM (inactive); GI50 [38]: 32.3 µM (inactive); GI50 [39]: 21.8 µM (inactive); GI50 [40]: 21.3 µM (inactive); GI50 [41]: 26.5 µM (inactive); GI50 [42]: 22.1 µM (inactive); GI50 [43]: 18.5 µM (inactive); GI50 [44]: 24.4 µM (inactive); GI50 [45]: 17.1 µM (inactive); GI50 [46]: 15.5 µM (inactive); GI50 [47]: 30.4 µM (inactive); GI50 [48]: 42.1 µM (inactive); GI50 [49]: 42.1 µM (inactive); GI50 [50]: 31.2 µM (inactive); GI50 [51]: 6.27 µM (inactive); GI50 [52]: 24.9 µM (inactive); GI50 [53]: 41.7 µM (inactive); GI50 [54]: > 49.5 µM (inactive); GI50 [55]: 22.9 µM (inactive); GI50 [56]: 36.6 µM (inactive); GI50 [57]: 21.4 µM (inactive); GI50 [58]: 22.8 µM (inactive)

**Q.** O=C1Nc2ccccc2/C1=N/N=c1\cccc[nH]1 was tested. Which GI50 [1] did it give?
**A.** 12.9 µM (inactive)

**Q.** And the GI50 [2]?
**A.** 25.8 µM (inactive)

**Q.** And the GI50 [3]?
**A.** 48.8 µM (inactive)

**Q.** What about the GI50 [4] of the same molecule?
**A.** 11 µM (inactive)

**Q.** What about the GI50 [5] of the same molecule?
**A.** 43.6 µM (inactive)

**Q.** And the GI50 [6]?
**A.** 32.8 µM (inactive)

**Q.** And the GI50 [7]?
**A.** 18.8 µM (inactive)

**Q.** And the GI50 [8]?
**A.** 33.7 µM (inactive)

**Q.** What about the GI50 [9] of the same molecule?
**A.** 21 µM (inactive)

**Q.** And the GI50 [10]?
**A.** 14.5 µM (inactive)

**Q.** And the GI50 [59]?
**A.** 23.7 µM (inactive)

**Q.** And the GI50 [11]?
**A.** 11.6 µM (inactive)

**Q.** And the GI50 [12]?
**A.** 30.3 µM

**Q.** And the GI50 [13]?
**A.** 16 µM (inactive)

**Q.** What about the GI50 [14] of the same molecule?
**A.** 34.1 µM (inactive)

**Q.** And the GI50 [16]?
**A.** 22.2 µM (inactive)

**Q.** And the GI50 [17]?
**A.** 39.1 µM (inactive)

**Q.** What about the GI50 [18] of the same molecule?
**A.** 1 µM (active)

**Q.** And the GI50 [19]?
**A.** 52.5 µM (inactive)

**Q.** What about the GI50 [20] of the same molecule?
**A.** 10.8 µM (inactive)

**Q.** What about the GI50 [21] of the same molecule?
**A.** 28.8 µM (inactive)

**Q.** And the GI50 [22]?
**A.** > 100 µM (inactive)

**Q.** What about the GI50 [23] of the same molecule?
**A.** 8.17 µM (inactive)

**Q.** And the GI50 [24]?
**A.** 12.6 µM (inactive)

**Q.** And the GI50 [25]?
**A.** > 100 µM (inactive)

**Q.** What about the GI50 [26] of the same molecule?
**A.** > 100 µM (inactive)

**Q.** What about the GI50 [27] of the same molecule?
**A.** 49.3 µM (inactive)

**Q.** And the GI50 [29]?
**A.** 16.1 µM (inactive)

**Q.** What about the GI50 [30] of the same molecule?
**A.** 28.2 µM (inactive)

**Q.** What about the GI50 [31] of the same molecule?
**A.** 14.6 µM (inactive)

**Q.** And the GI50 [32]?
**A.** 17.1 µM (inactive)

**Q.** What about the GI50 [33] of the same molecule?
**A.** 10.2 µM (inactive)

**Q.** And the GI50 [34]?
**A.** 48.8 µM (inactive)

**Q.** What about the GI50 [35] of the same molecule?
**A.** 20.2 µM (inactive)

**Q.** What about the GI50 [36] of the same molecule?
**A.** 51.5 µM (inactive)

**Q.** And the GI50 [37]?
**A.** 11.9 µM (inactive)

**Q.** And the GI50 [38]?
**A.** 52.8 µM (inactive)

**Q.** And the GI50 [39]?
**A.** 20.6 µM (inactive)

**Q.** And the GI50 [40]?
**A.** 97.3 µM (inactive)

**Q.** And the GI50 [41]?
**A.** 35.4 µM (inactive)

**Q.** And the GI50 [42]?
**A.** 51.9 µM (inactive)

**Q.** And the GI50 [44]?
**A.** > 100 µM (inactive)

**Q.** And the GI50 [45]?
**A.** > 100 µM (inactive)

**Q.** What about the GI50 [46] of the same molecule?
**A.** 40.4 µM (inactive)

**Q.** What about the GI50 [47] of the same molecule?
**A.** 18.6 µM (inactive)

**Q.** What about the GI50 [48] of the same molecule?
**A.** 29.2 µM (inactive)

**Q.** And the GI50 [49]?
**A.** 30.7 µM (inactive)

**Q.** What about the GI50 [50] of the same molecule?
**A.** 21.5 µM (inactive)

**Q.** And the GI50 [51]?
**A.** 14.3 µM (inactive)

**Q.** What about the GI50 [52] of the same molecule?
**A.** > 100 µM (inactive)

**Q.** What about the GI50 [53] of the same molecule?
**A.** 38.5 µM (inactive)

**Q.** And the GI50 [54]?
**A.** 22.5 µM (inactive)

**Q.** What about the GI50 [55] of the same molecule?
**A.** 19 µM (inactive)

**Q.** What about the GI50 [56] of the same molecule?
**A.** 41.8 µM (inactive)

**Q.** And the GI50 [57]?
**A.** 65.5 µM (inactive)

**Q.** And the GI50 [58]?
**A.** 12.1 µM (inactive)

Source: ChEMBL document CHEMBL1201862, “PubChem BioAssay data set” (2004)
